Among the data in patent US20230374015A1, “INHIBITORS OF FIBROBLAST GROWTH FACTOR RECEPTOR KINASES” (Kinnate Biopharma Inc., priority 2020, published 2023) are IC50 values, retold here.

Where only a bound is given, the exact number is not on record here.

Sequence of FGFR2 (P21802 22-821): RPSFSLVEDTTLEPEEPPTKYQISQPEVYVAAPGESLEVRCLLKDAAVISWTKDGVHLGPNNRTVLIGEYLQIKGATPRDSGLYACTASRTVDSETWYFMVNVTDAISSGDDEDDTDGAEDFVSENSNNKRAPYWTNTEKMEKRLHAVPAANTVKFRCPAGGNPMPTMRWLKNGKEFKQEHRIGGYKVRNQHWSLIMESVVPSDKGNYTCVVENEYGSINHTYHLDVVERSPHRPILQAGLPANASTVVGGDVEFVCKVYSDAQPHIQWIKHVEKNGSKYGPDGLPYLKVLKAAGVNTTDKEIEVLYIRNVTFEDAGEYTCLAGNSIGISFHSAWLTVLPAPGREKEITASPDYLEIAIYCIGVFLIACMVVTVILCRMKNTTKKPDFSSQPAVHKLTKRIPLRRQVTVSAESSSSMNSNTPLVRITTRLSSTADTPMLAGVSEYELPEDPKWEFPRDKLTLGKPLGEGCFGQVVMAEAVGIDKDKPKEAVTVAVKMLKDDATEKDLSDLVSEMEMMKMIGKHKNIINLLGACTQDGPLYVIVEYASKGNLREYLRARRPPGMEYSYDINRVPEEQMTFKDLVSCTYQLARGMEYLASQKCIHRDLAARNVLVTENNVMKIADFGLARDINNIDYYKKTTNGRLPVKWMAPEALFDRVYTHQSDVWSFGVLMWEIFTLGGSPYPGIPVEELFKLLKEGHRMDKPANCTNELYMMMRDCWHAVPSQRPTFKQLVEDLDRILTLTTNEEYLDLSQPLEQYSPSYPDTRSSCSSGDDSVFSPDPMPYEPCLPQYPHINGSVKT

The target of the assay is FGFR2 (Homo sapiens, UniProt P21802). The assay can be described thus: FGFR2 Kinase Protocol - Condition 1 (Reaction Biology HotSpot radiometric kinase assay). In kind it is biochemical. The note with it: 20-min incubation of compound with kinase before ATP; poly[Glu:Tyr] (4:1) 0.2 mg/ml; ATP 100 micromolar; 2 hr room temperature. Here is the method:
Example 1: FGFR2 Kinase Protocol—Condition 1
The Reaction Biology HotSpot assay platform (http://www.reactionbiology.com) was used to measure kinase/inhibitor interactions as described previously (Anastassiadis et al., 2011). In brief, for each reaction, kinase and substrate were mixed in a buffer containing 20 mM HEPES (pH 7.5), 10 mM MgCl2, 1 mM EGTA, 0.02% Brij35, 0.02 mg/mL BSA, 0.1 mM Na3VO4, 2 mM DTT, and 1% DMSO. All compounds were in powder form and freshly solubilized in DMSO for assays. Compounds were then added to each reaction mixture via acoustic dispense using an ECHO 550 nanoliter dispenser. For Human FGFR2 wildtype testing, a peptide substrate, poly[Glu:Tyr] (4:1) was used to promote the reaction at a concentration of 0.2 mg/ml. For Human FGFR2 (V564F) testing, a peptide substrate, poly[Glu:Tyr] (4:1) was used to promote the reaction at a concentration of 0.2 mg/ml. ATP concentration for all assays was maintained at 100 micromolar. Compounds were tested in 10-dose IC50 mode with a 3-fold serial dilution. After a 20-min incubation, ATP (Sigma-Aldrich, St. Louis, MO 63178) and [g33P] ATP (specific activity 10 microCi/microliter) purchased at PerkinElmer (Boston, MA, 02118 Cat #BLU 003H250UC) were added at a final total concentration of […]. Reactions were carried out at room temperature for 2 hr and spotted onto P81 ion exchange cellulose chromatography paper (Reaction Biology). Filter paper was washed in 0.75% phosphoric acid to remove unincorporated ATP. The percent remaining kinase activity relative to a vehicle-containing (DMSO) kinase reaction was calculated for each kinase/inhibitor pair. IC50 values were calculated using Dotmatics Knowledge Solutions Studies curve fitting (Dotmatics, Bishops Stortford, UK, CM23).
`C=CC(=O)N1CC[C@H](n2cc(C#Cc3ccc4[nH]c(C)nc4c3)c3c(N)ncnc32)C1` [Example 11, (S)-1-(3-(4-amino-5-((2-methyl-1H-benzo[d]imidazol-5-yl)ethynyl)-7H-pyrrolo[2,3-d]pyrimidin-7-yl)pyrrolidin-1-yl)prop-2-en-1-one]: the concentration for half-maximal inhibition (IC50) (commonly the point on the concentration scale where inhibition reaches its midpoint) is no more than 100 nM.

The molecule `C=CC(=O)N1C[C@@H](n2nc(C#Cc3ccc4[nH]c(C)nc4c3)c3c(N)ncnc32)C[C@@H]1COC` [Example 1, 1-((2R,4S)-4-(4-amino-3-((2-methyl-1H-benzo[d]imidazol-5-yl)ethynyl)-1H-pyrazolo[3,4-d]pyrimidin-1-yl)-2-(methoxymethyl)pyrrolidin-1-yl)prop-2-en-1-one] came in with an IC50 of no more than 100 nM.

`C=CC(=O)N1C[C@@H](n2nc(C#Cc3ccc4[nH]cnc4c3)c3c(N)ncnc32)C[C@@H]1COC` [Example 5, 1-((2R,4S)-4-(3-((1H-benzo[d]imidazol-5-yl)ethynyl)-4-amino-1H-pyrazolo[3,4-d]pyrimidin-1-yl)-2-(methoxymethyl)pyrrolidin-1-yl)prop-2-en-1-one] had an IC50 of no more than 100 nM.

For `C=CC(=O)N1C[C@@H](n2nc(C#Cc3c(F)cc4nc(C)n(C)c4c3F)c3c(N)ncnc32)C[C@@H]1COC` [Example 13, 1-((2R,4S)-4-(4-amino-3-((5,7-difluoro-1,2-dimethyl-1H-benzo[d]imidazol-6-yl)ethynyl)-1H-pyrazolo[3,4-d]pyrimidin-1-yl)-2-(methoxymethyl)pyrrolidin-1-yl)prop-2-en-1-one], the half-maximal inhibitory concentration (IC50) was no more than 100 nM.

`C=CC(=O)N1C[C@@H](n2nc(C#Cc3ccc4c(c3)nc(C)n4CC)c3c(N)nccc32)C[C@@H]1COC` [Example 21, 1-((2R,4S)-4-(4-amino-3-((1-ethyl-2-methyl-1H-benzo[d]imidazol-5-yl)ethynyl)-1H-pyrazolo[4,3-c]pyridin-1-yl)-2-(methoxymethyl)pyrrolidin-1-yl)prop-2-en-1-one] showed a 50% inhibitory concentration (IC50) of no more than 100 nM.

As for `C=CC(=O)N1C[C@@H](n2nc(C#Cc3ccc4c(c3)nc(C)n4CC)c3c(N)ncnc32)C[C@@H]1COC` [Example 20, 1-((2R,4S)-4-(4-amino-3-((1-ethyl-2-methyl-1H-benzo[d]imidazol-5-yl)ethynyl)-1H-pyrazolo[3,4-d]pyrimidin-1-yl)-2-(methoxymethyl)pyrrolidin-1-yl)prop-2-en-1-one], the IC50 is no more than 100 nM.

In turn, `C=CC(=O)N1C[C@@H](n2cc(C#Cc3ccc4nc(C)[nH]c4c3)c3c(N)ncnc32)C[C@@H]1COC` [Example 8, 1-[(2R,4S)-4-[4-amino-5-[2-(2-methyl-3H-1,3-benzodiazol-5-yl)ethynyl]pyrrolo[2,3-d]pyrimidin-7-yl]-2-(methoxymethyl)pyrrolidin-1-yl]prop-2-en-1-one] yielded an IC50 of no more than 100 nM.

Molecule `C=CC(=O)N1C[C@@H](n2nc(C#Cc3ccc4c(c3)nc(C)n4C)c3c(N)nccc32)C[C@@H]1COC` [Example 25, 1-((2R,4S)-4-(4-amino-3-((1,2-dimethyl-1H-benzo[d]imidazol-5-yl)ethynyl)-1H-pyrazolo[4,3-c]pyridin-1-yl)-2-(methoxymethyl)pyrrolidin-1-yl)prop-2-en-1-one] gave an IC50 of no more than 100 nM.

`C=CC(=O)N1C[C@@H](n2nc(C#Cc3ccc4ncn(C)c4c3)c3c(N)ncnc32)C[C@@H]1COC` [Example 9, 1-((2R,4S)-4-(4-amino-3-((1-methyl-1H-benzo[d]imidazol-6-yl)ethynyl)-1H-pyrazolo[3,4-d]pyrimidin-1-yl)-2-(methoxymethyl)pyrrolidin-1-yl)prop-2-en-1-one] showed an IC50 of 100 to 1000 nM.

Regarding `C=CC(=O)N1CC[C@H](n2nc(C#Cc3ccc4[nH]c(C)nc4c3)c3c(N)ncnc32)C1` [Example 7, (S)-1-(3-(4-amino-3-((2-methyl-1H-benzo[d]imidazol-5-yl)ethynyl)-1H-pyrazolo[3,4-d]pyrimidin-1-yl)pyrrolidin-1-yl)prop-2-en-1-one], the 50% inhibitory concentration (IC50) was no more than 100 nM.
